Measured values from patent US20090149520A1, “OXAZOLIDINONES CONTAINING OXINDOLES AS ANTIBACTERIAL AGENTS” (PFIZER INC, priority 2006, published 2009).
Values after ≈ are worked out from the molar mass of the structure shown.

Tests used:
Format in all cases: cell-based
[1] = tested on: S. pneumoniae SV1 SP-3; test: in vitro antibacterial activity MIC, S. pneumoniae; settings: Streptococcus pneumoniae, SV1SP3; strain SV1 SP-3; read-out: MICs S. pneumoniae SV1 SP-3
Source text: (§1) The in vitro antibacterial activity of the compounds of the present invention may be assessed by following procedures recommended in (1) National Committee for Clinical Laboratory Standards (January 2003), Methods for dilution antimicrobial tests for bacteria that grow aerobically, Approved Standard (6th ed), M7-A6, NCCLS, Wayne, Pa.; (2) National Committee for Clinical Laboratory Standards (March 2001), Methods for antimicrobial susceptibility testing of anaerobic bacteria, Approved Standard (5th ed), M11-A4, NCCLS, Wayne, Pa.; (3) National Committee for Clinical Laboratory Standards (Jan. 2003), MIC testing supplemental tables, M100-S13 (for use with M7-A6), NCCLS, Wayne, Pa.; and (4) Murray P R, Baron E J, Jorgensen J H, et al. Manual of Clinical Microbiology (8th ed) Washington, D.C.: American Society for Microbiology Press, 2003. The antibacterial activity can be presented in the form of MIC value. The MIC value is the lowest concentration of drug, which prevented macroscopically visible growth under the conditions of the test.

[2] = tested on: E. faecalis MGH-2 EF 1-1; test: in vitro antibacterial activity MIC, E. faecalis; settings: Enterococcus faecalis, MGH2EF11; strain MGH-2 EF 1-1; read-out: MICs E. faecalis MGH-2 EF 1-1
Source text: as §1

[3] = tested on: S. aureus UC-76 SA-1; test: in vitro antibacterial activity MIC, S. aureus; settings: Staphylococcus aureus, UC76; strain UC-76 SA-1; read-out: MICs S. aureus UC-76 SA-1
Source text: as §1

CC(C)N1C(=O)Cc2cc(N3C[C@H](Cn4ccnn4)OC3=O)ccc21 [Example 1, (R)-5-((1H-1,2,3-triazol-1-yl)methyl)-3-(1-isopropyl-2 oxoindolin-5-yl)oxazolidin-2-one]
MIC [1]: 8 µg/mL (≈ 23.4 µM)
MIC [2]: 8 µg/mL (≈ 23.4 µM)
MIC [3]: 8 µg/mL (≈ 23.4 µM)

CCN1C(=O)Cc2cc(N3C[C@H](Cn4ccnn4)OC3=O)ccc21 [Example 2]
MIC [1]: 4 µg/mL (≈ 12.2 µM)
MIC [2]: 8 µg/mL (≈ 24.4 µM)
MIC [3]: 4 µg/mL (≈ 12.2 µM)
